Key:
[1] = target: T1, Polyunsaturated fatty acid lipoxygenase ALOX15 (Oryctolagus cuniculus, UniProt P12530); experiment: biochemical; type: tissue-based, Reticulocytes;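 note: inhibition of 15-lipoxygenase enzyme activity measured with linoleic acid as the substrate; in other assays of this panel Not Active means under 50% inhibition at 10 µM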
T1 sequence (P12530 whole entry): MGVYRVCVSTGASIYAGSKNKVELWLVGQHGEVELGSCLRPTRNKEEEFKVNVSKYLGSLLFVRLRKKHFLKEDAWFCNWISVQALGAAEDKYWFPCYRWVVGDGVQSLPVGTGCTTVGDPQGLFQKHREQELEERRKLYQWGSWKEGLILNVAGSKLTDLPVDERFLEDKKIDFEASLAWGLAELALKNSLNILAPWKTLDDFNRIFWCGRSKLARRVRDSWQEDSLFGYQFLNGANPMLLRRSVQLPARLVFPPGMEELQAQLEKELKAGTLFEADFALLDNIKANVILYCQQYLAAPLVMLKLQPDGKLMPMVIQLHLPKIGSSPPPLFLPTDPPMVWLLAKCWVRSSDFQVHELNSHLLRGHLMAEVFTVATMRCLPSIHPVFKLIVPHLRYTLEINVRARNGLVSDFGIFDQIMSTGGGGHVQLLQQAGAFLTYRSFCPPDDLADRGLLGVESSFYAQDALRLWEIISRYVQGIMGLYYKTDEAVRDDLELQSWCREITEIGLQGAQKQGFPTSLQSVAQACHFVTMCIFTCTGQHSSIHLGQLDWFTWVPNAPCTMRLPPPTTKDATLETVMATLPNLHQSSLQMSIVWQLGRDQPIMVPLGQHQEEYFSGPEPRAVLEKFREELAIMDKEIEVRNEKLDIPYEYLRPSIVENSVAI

Melanocortin receptor 5 = Melanocortin receptor 5 (Homo sapiens, UniProt P33032); type: cell membranes, HEK293, Membrane; details: hek293; note: in other assays of this panel Not Active means under 50% inhibition at 10 µM
Estrogen receptor beta = Estrogen receptor beta (Homo sapiens, UniProt Q92731); details: sf9; note: in other assays of this panel Not Active means under 50% inhibition at 10 µM
[2] = target: Matrix metalloproteinase-9 (Homo sapiens, UniProt P14780); experiment: biochemical; type: cell-based;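 note: inhibition of isolated MMP-9 enzyme activity toward a synthetic peptide substrate, from the DrugMatrix protease screening panel; in other assays of this panel Not Active means under 50% inhibition at 10 µM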
[3] = target: T2, Muscarinic acetylcholine receptor M4 (Homo sapiens, UniProt P08173); type: cell membranes, CHO-K1, Membrane; details: cho-k1; note: in other assays of this panel Not Active means under 50% inhibition at 10 µM
T2 sequence (P08173 whole entry): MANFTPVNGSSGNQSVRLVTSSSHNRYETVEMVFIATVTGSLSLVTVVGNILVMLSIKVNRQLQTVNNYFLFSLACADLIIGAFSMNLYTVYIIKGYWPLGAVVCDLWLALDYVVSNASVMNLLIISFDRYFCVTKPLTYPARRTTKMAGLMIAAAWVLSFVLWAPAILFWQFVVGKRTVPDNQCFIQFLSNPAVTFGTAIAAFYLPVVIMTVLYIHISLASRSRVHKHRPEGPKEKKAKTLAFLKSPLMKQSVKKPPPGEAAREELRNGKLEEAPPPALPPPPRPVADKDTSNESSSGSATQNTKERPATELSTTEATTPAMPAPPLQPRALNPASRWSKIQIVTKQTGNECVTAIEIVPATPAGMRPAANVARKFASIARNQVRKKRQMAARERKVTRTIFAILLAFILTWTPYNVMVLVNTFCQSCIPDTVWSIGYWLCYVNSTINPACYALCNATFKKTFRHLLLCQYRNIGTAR

[4] = target: Sigma non-opioid intracellular receptor 1 (Homo sapiens, UniProt Q99720); experiment: DRUGMATRIX: Sigma1 radioligand binding (ligand: [3H] Haloperidol); type: cell membranes, Jurkat, Membrane; details: jurkat; Not Active = under 50% inhibition at 10 µM
[5] = target: T3, Type-2 angiotensin II receptor (Homo sapiens, UniProt P50052); type: cell-based; details: cho-k1; note: in other assays of this panel Not Active means under 50% inhibition at 10 µM
T3 sequence (P50052 whole entry): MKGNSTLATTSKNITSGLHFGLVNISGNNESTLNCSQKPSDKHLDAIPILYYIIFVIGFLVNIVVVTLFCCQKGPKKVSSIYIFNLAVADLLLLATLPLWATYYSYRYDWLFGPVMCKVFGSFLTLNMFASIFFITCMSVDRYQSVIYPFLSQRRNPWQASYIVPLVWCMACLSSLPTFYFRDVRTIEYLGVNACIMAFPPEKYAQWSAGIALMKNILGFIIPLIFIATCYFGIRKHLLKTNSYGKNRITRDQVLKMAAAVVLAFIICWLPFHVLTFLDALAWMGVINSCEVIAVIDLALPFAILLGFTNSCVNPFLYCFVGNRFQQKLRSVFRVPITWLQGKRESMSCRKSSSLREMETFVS

Chain of Sigma non-opioid intracellular receptor 1 (Q99720 whole entry): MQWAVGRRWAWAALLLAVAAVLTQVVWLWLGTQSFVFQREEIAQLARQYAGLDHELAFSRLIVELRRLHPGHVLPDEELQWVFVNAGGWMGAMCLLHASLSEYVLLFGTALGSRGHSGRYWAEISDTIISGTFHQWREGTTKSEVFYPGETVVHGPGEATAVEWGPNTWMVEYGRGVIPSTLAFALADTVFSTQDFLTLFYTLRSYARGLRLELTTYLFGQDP
Chain of Melanocortin receptor 5 (P33032 whole entry): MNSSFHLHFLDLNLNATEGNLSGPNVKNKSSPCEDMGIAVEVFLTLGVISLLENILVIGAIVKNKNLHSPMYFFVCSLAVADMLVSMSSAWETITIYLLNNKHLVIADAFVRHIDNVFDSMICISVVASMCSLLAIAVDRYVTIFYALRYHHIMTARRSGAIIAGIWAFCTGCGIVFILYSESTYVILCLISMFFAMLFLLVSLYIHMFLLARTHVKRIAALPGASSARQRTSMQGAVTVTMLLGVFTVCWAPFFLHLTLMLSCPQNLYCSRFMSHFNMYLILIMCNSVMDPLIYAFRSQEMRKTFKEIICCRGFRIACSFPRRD
Chain of Estrogen receptor beta (Q92731 whole entry): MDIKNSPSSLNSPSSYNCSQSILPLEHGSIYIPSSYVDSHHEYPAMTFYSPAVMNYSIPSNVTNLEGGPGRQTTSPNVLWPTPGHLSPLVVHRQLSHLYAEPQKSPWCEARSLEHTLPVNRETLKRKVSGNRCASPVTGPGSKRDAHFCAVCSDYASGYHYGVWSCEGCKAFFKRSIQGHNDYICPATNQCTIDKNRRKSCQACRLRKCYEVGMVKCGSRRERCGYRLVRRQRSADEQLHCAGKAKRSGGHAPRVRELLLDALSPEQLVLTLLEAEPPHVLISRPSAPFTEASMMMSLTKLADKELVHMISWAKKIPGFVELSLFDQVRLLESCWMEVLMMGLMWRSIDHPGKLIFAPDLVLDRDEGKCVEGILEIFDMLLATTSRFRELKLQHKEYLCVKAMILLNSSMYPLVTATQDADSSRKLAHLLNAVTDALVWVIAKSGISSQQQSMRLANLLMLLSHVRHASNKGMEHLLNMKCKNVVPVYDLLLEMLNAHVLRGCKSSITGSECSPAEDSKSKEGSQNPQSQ
Chain of Matrix metalloproteinase-9 (P14780 whole entry): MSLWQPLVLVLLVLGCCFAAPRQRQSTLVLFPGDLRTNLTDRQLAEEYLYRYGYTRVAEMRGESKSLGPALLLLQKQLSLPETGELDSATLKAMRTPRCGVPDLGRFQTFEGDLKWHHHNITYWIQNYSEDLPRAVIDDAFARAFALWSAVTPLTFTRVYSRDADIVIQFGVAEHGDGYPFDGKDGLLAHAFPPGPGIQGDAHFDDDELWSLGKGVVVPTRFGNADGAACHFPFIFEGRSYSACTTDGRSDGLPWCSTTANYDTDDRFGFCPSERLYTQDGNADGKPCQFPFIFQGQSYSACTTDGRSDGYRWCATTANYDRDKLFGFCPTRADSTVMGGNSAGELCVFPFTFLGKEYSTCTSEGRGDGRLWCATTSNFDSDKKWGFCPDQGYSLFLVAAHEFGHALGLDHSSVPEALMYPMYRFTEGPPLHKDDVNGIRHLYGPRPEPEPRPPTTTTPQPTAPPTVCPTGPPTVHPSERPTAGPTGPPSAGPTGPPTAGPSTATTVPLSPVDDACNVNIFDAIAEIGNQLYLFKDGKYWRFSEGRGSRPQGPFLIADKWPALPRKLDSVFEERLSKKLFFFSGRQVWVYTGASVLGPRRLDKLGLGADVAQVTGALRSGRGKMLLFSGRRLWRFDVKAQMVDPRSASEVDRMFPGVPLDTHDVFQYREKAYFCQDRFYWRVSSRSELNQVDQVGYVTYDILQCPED

| Structure (SMILES) | IC50 ([1]; reticulocytes) | IC50 (Melanocortin receptor 5) | IC50 (Estrogen receptor beta) | IC50 [2] | IC50 [3] | IC50 [4] | IC50 [5] | Ki ([1]; reticulocytes) | IC50 ([1]; read-out: IC50) [µM] | IC50 ([2]; read-out: IC50) [µM] |
| --- | --- | --- | --- | --- | --- | --- | --- | --- | --- | --- |
| CC(C)(C)c1ccc(S(=O)(=O)/C=C/C#N)cc1 [BAY-11-7085] | Not Active | Not Active | Not Active | Not Active | Not Active | Not Active | Not Active |  |  |  |
| CCc1oc2ccccc2c1C(=O)c1cc(Br)c(O)c(Br)c1 [BENZBROMARONE] |  | Not Active | Not Active | Not Active | Not Active | Not Active | Not Active | Not Active |  |  |
| O=c1cc(-c2ccccc2)oc2ccc3ccccc3c12 [BETA-NAPHTHOFLAVONE] | Not Active | Not Active | Not Active | Not Active | Not Active | Not Active | Not Active |  |  |  |
| O=C(/C=C/c1ccc(O)c(O)c1)OCCc1ccccc1 [CAFFEIC ACID PHENETHYL ESTER] | Not Active | Not Active | Not Active | Not Active | Not Active | Not Active | Not Active |  |  |  |
| COc1cc(CNC(=O)CCCC/C=C/C(C)C)ccc1O [CAPSAICIN] | Not Active | Not Active | Not Active | Not Active | Not Active | Not Active | Not Active |  |  |  |
| NC(=O)N1c2ccccc2C=Cc2ccccc21 [CARBAMAZEPINE] | Not Active | Not Active | Not Active | Not Active | Not Active | Not Active | Not Active |  |  |  |
| CCOC(=O)n1ccn(C)c1=S [CARBIMAZOLE] | Not Active | Not Active | Not Active | Not Active | Not Active | Not Active | Not Active |  |  |  |
| Oc1ccccc1O [CATECHOL] |  | Not Active | Not Active |  | Not Active | Not Active | Not Active |  | 0.868 | 23.4 |
| CO[C@@]1(NC(=O)CSCC#N)C(=O)N2C(C(=O)O)=C(CSc3nnnn3C)CS[C@@H]21 [CEFMETAZOLE] | Not Active | Not Active | Not Active | Not Active | Not Active | Not Active | Not Active |  |  |  |
| CN(C(=O)CCCOc1ccc2[nH]c(=O)ccc2c1)C1CCCCC1 [CILOSTAMIDE] | Not Active | Not Active | Not Active | Not Active | Not Active | Not Active | Not Active |  |  |  |
| CC(C)(Oc1ccc(C2CC2(Cl)Cl)cc1)C(=O)O (stereo unspecified) [CIPROFIBRATE] | Not Active | Not Active | Not Active | Not Active | Not Active | Not Active | Not Active |  |  |  |
| CCC[C@@H]1C[C@@H](C(=O)N[C@@H]([C@H]2O[C@H](SC)[C@H](O)[C@@H](O)[C@H]2O)[C@H](C)Cl)N(C)C1 [CLINDAMYCIN] | Not Active | Not Active | Not Active | Not Active | Not Active | Not Active | Not Active |  |  |  |
| O=C(O)c1cc(=O)c2c(OCC(O)COc3cccc4oc(C(=O)O)cc(=O)c34)cccc2o1 [CROMOLYN] | Not Active | Not Active | Not Active | Not Active | Not Active | Not Active | Not Active |  |  |  |

From ChEMBL document CHEMBL1909046, “DrugMatrix in vitro pharmacology data”
